Among the data in patent publication US20260125359A1, “HETEROARYL COMPOUNDS AS MULTI-TARGET PROTEIN KINASE INHIBITORS” (FUJIAN HAIXI PHARMACEUTICALS CO., LTD., priority 2023, published 2026) are IC50 values, retold here.

The assay has as its system M-NFS-60 cells. The assay is described as follows: M-NFS-60 cell in vitro assay (CCK, 48 h, M-CSF factor medium). It counts as cell-based. Conditions: M-NFS-60 cells; read-out: M-NFS-60cellassay IC50. In short, it runs like this: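 Mouse M-NFS-60 cells (2000/well) in RPMI-1640 with 10% serum and M-CSF (25 ng/ml) were pre-incubated 4 h, then exposed to DMSO-diluted compound gradients for 48 h at 5% CO2. Viability read by CCK, 2 h, OD 450 nm; IC50 from curve fitting.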
The term IC50 denotes the concentration needed to halve the response being measured. Turning to `Cn1cc(-c2cncc(N[C@H]3CCc4c(NC(=O)N5CCC(C)(C)C5=O)cccc43)n2)cn1` [Compound 64, (S)-3,3-dimethyl-N-(1-((6-(1-methyl-1H-pyrazol-4-yl)pyrazin-2-yl)amino)-2,3-dihydro-1H-inden-4-yl)-2-oxopyrrolidine-1-carboxamide], the IC50 was in the range of 200 to 500 nM.
Turning to `Cn1cc(-c2cnc(N)c(O[C@H]3CCc4c(Nc5cc(C(C)(C)C)on5)cccc43)c2)cn1` [Compound 67, (S)—N-(1-((2-amino-5-(1-methyl-1H-pyrazol-4-yl)pyridin-3-yl)oxy)-2,3-dihydro-1H-inden-4-yl)-5-(tert-butyl) isoxazol-3-amine], the IC50 was below 50 nM.
Take `Cn1cc(-c2cncc(O[C@H]3CCc4c3ccc(F)c4C(=O)Nc3cccc(C4CC4)c3)c2)cn1` [Compound 53, (S)—N-(3-cyclopropylphenyl)-5-fluoro-1-((5-(1-methyl-1H-pyrazol-4-yl)pyridin-3-yl)oxy)-2,3-dihydro-1H-indene-4-carboxamide]: the IC50 was in the range of 50 to 200 nM.
`Cn1cc(-c2cncc(N[C@H]3CCc4c(Nc5nc(C(C)(C)C)no5)cccc43)c2)cn1` [Compound 42k]: the IC50 is 200 to 500 nM.
On to `Cn1cc(-c2cncc(N[C@H]3CCc4c(C(=O)Nc5cccc(C6CC6)c5)ccc(F)c43)c2)cn1` [Compound 50, (S)—N-(3-cyclopropylphenyl)-7-fluoro-1-((5-(1-methyl-1H-pyrazol-4-yl)pyridin-3-yl)amino)-2,3-dihydro-1H-indene-4-carboxamide], for which the IC50 is below 50 nM.
In the case of `Cn1cc(-c2cncc(N[C@H]3CCc4c(Nc5ncc(C(C)(C)C)s5)cccc43)c2)cn1` [Compound 42m], the IC50 lay within 50 to 200 nM.
For the molecule `Cc1cncc(Nc2cccc3c2CC[C@@H]3Nc2cncc(-c3cnn(C)c3)n2)c1` [Compound 39b], the 50% inhibitory concentration (IC50) is above 500 nM.
`CNCc1cccc(NC(=O)c2cccc3c2CC[C@@H]3Oc2cncc(-c3cnn(C)c3)c2)c1` [Compound 19l]: the IC50 is above 500 nM.
The same measure for `Cn1cc(-c2cncc(N[C@H]3CCc4c(Nc5cc(C(C)(C)C)no5)cccc43)c2)cn1` [Compound 42n]: 50 to 200 nM; for `Cn1cc(-c2cncc(N[C@H]3CCc4c(C(=O)Nc5cccc(C6CC6)c5)cccc43)n2)cn1` [Compound 27a]: below 50 nM.
Then `Cc1cccc(C(=O)Nc2cc(F)cc3c2CCC3Nc2cncc(-c3cnn(C)c3)c2)c1` (stereo not shown) [Compound 44a], with 50 to 200 nM; and `CN1CCc2cc(NC(=O)c3cccc4c3CC[C@@H]4N(C)c3cncc(-c4cnn(C)c4)c3)ccc2C1` [Compound 22e], with 200 to 500 nM; and `CN(C)Cc1ccc(NC(=O)c2cccc3c2CC[C@@H]3Nc2cncc(-c3cnn(C)c3)c2)cc1` [Compound 14au], with 50 to 200 nM.
The same measure for `Cn1cc(-c2cncc(N[C@H]3CCc4c(C(=O)NC(C)(C)C(F)(F)F)cccc43)n2)cn1` [Compound 27m]: above 500 nM.
Consider `COc1ccc(NCc2cccc3c2CC[C@@H]3Nc2cncc(-c3cnn(C)c3)c2)cc1` [Compound 59a], for which the concentration for half-maximal inhibition (IC50) was in the range of 200 to 500 nM.
`Cn1ncc2ncc(O[C@H]3CCc4c(C(=O)Nc5cccc(C6CC6)c5)cccc43)cc21` [Compound 76ab]: the IC50 is below 50 nM.
Regarding `Cn1cc(-c2cnc(N)c(O[C@H]3CCc4c(C(=O)Nc5cccc(CN6CCCC6)c5)cccc43)c2)cn1` [Compound 5c], the IC50 is 50 to 200 nM.
Then `Cc1cc(NC(=O)c2cccc3c2CC[C@@H]3N(C)c2cnc3cn(C)nc3c2)ccc1F` [Compound 80s], with below 50 nM; and `Cn1cc2ncc(N[C@H]3CCc4c(Nc5noc(C(F)(F)F)n5)cccc43)cc2n1` [Compound 93p], with above 500 nM; and `CC(C)(C)c1cc(Nc2cccc3c2CC[C@@H]3Nc2cncc(Cl)c2)no1` [Compound 42a], with 50 to 200 nM.
On to `CN(c1cnc2cnn(C)c2c1)[C@H]1CCc2c(C(=O)Nc3cncc(Cl)c3)cccc21` [Compound 80e, (S)—N-(5-chloropyridin-3-yl)-1-(methyl (1-methyl-1H-pyrazolo[4,3-b]pyridin-6-yl)amino)-2,3-dihydro-1H-indene-4-carboxamide], for which the IC50 is below 50 nM.
Then `COc1cccc(C(=O)Nc2cccc3c2CCC3Oc2cc(Br)cnc2N)c1` (stereo not shown) [Compound 1f, N-(1-((2-amino-5-bromopyridin-3-yl)oxy)-2,3-dihydro-1H-inden-4-yl)-3-methoxybenzamide], with 50 to 200 nM; and `CN1CCc2ccc(NC(=O)c3cccc4c3CC[C@@H]4N(C)c3cncc(-c4cnn(C)c4)c3)cc2C1` [Compound 22c], with 50 to 200 nM.
In the case of `Cn1cc2ncc(N[C@H]3CCc4c(Nc5noc(C67CC(F)(C6)C7)n5)cccc43)cc2n1` [Compound 93r], the IC50 is below 50 nM.
As for `Cn1cc(-c2cncc(N[C@H]3CCc4c(CNc5ccc(C(F)(F)F)cc5)cccc43)c2)cn1` [Compound 58, (S)-5-(1-methyl-1H-pyrazol-4-yl)-N-(4-(((4-(trifluoromethyl)phenyl)amino)methyl)-2,3-dihydro-1H-inden-1-yl) pyridin-3-amine], the IC50 was above 500 nM.
Then `Cc1cc2ncc(N[C@H]3CCc4c(C(=O)Nc5cccc(C6CC6)c5)cccc43)cn2n1` [Compound 74f], with below 50 nM; and `Cn1cc(-c2cncc(N[C@H]3CCc4c(NC(=O)c5cccc(C(F)(F)F)c5F)cccc43)n2)cn1` [Compound 25c], with below 50 nM.
In the case of `Cn1cc2ncc(N[C@H]3CCc4c(Nc5noc(C6(C)CCCC6)n5)cccc43)cc2n1` [Compound 93m], the IC50 was below 50 nM.
Regarding `CN(C)Cc1ccc(NC(=O)c2cccc3c2CC[C@@H]3N(C)c2cnc3cnn(C)c3c2)cc1F` [Compound 80c], the IC50 is 50 to 200 nM.
In the case of `Cc1cncc(NC(=O)c2cccc3c2CC[C@@H]3Oc2cnc3cn(C)nc3c2)c1` [Compound 76ba], the IC50 was below 50 nM.
With `Cn1cc(-c2cncc(O[C@H]3CCc4c(C(=O)Nc5ccc(C(F)(F)F)cc5)cccc43)c2)cn1` [Compound 17, (S)-1-((5-(1-methyl-1H-pyrazol-4-yl)pyridin-3-yl)oxy)-N-(4-(trifluoromethyl)phenyl)-2,3-dihydro-1H-indene-4-carboxamide], the IC50 was below 50 nM.
Take `Cc1cccc(NC(=O)c2cccc3c2CC[C@@H]3Nc2cncc(N3CCN(C)CC3)n2)c1` [Compound 34, (S)-1-((6-(4-methylpiperazin-1-yl)pyrazin-2-yl)amino)-N-(m-tolyl)-2,3-dihydro-1H-indene-4-carboxamide]: the IC50 lay within 50 to 200 nM.
The same measure for `CN1CCc2nc(NC(=O)c3cccc4c3CC[C@@H]4N(C)c3cnc4cnn(C)c4c3)sc2C1` [Compound 80w]: 50 to 200 nM.
In the case of `Cn1cc(-c2cncc(N[C@H]3CCc4c(NC(=O)NC5CCCCC5)cccc43)n2)cn1` [Compound 65a], the IC50 is below 50 nM.
For `Cc1cccc(C(=O)Nc2cccc3c2CC[C@H]3Nc2cncc(-c3cnn(C)c3)n2)c1` [Compound 25b], the IC50 was above 500 nM.
Then `COc1cccc(NC(=O)c2cccc3c2CC[C@@H]3Oc2cnc3cn(C)nc3c2)c1F` [Compound 76az], with below 50 nM; and `COc1cc(NC(=O)c2cccc3c2CC[C@@H]3N(C)c2cnc3cn(C)nc3c2)ccc1F` [Compound 80v], with below 50 nM.
On to `Nc1ncc(Cl)cc1O[C@H]1CCc2c(C(=O)Nc3cccc(C4CC4)c3)cccc21` [Compound 7, (S)-1-((2-amino-5-chloropyridin-3-yl)oxy)-N-(3-cyclopropylphenyl)-2,3-dihydro-1H-indene-4-carboxamide], for which the IC50 was below 50 nM.
The same measure for `CN(C)CCOc1cccc(NC(=O)c2cccc3c2CC[C@@H]3Oc2cncc(-c3cnn(C)c3)c2)c1` [Compound 19r]: 50 to 200 nM.
Then `COc1cccc(C(=O)Nc2cccc3c2OCCC3Oc2cc(Br)cnc2N)c1` (stereo not shown) [Compound 2b], with above 500 nM; and `CN1CCc2ccc(NC(=O)c3cccc4c3CC[C@@H]4Oc3cncc(-c4cnn(C)c4)c3)cc2C1` [Compound 18, (S)—N-(2-methyl-1,2,3,4-tetrahydroisoquinolin-7-yl)-1-((5-(1-methyl-1H-pyrazol-4-yl)pyridin-3-yl)oxy)-2,3-dihydro-1H-indene-4-carboxamide], with 50 to 200 nM; and `Cn1cc(-c2cncc(O[C@H]3CCc4c(C(=O)Nc5cccc(CN6CCC6)c5)cccc43)c2)cn1` [Compound 19s], with 200 to 500 nM.
The same measure for `O=C(Nc1cccc(C2CC2)c1)c1cccc2c1CC[C@@H]2Nc1cncc(Br)c1` [Compound 10, (S)-1-((5-bromopyridin-3-yl)amino)-N-(3-cyclopropylphenyl)-2,3-dihydro-1H-indene-4-carboxamide]: 50 to 200 nM.
`Cc1cccc(C(=O)Nc2cc(F)cc3c2CC[C@@H]3Nc2cncc(-c3cnn(C)c3)c2)c1` [Compound 46a]: the IC50 was below 50 nM.
The same measure for `Cc1cccc(NC(=O)c2cccc3c2CC[C@@H]3Oc2cnc3cnn(C)c3c2)c1F` [Compound 75, (S)—N-(2-fluoro-3-methylphenyl)-1-((1-methyl-1H-pyrazolo[4,3-b]pyridin-6-yl)oxy)-2,3-dihydro-1H-indene-4-carboxamide]: below 50 nM.
Take `Cc1csc(Nc2cccc3c2CC[C@@H]3Nc2cncc(-c3cnn(C)c3)n2)n1` [Compound 36a]: the IC50 was above 500 nM.
On to `CN1CCc2c(cccc2NC(=O)c2cccc3c2CC[C@@H]3Oc2cncc(-c3cnn(C)c3)c2)C1` [Compound 19g], for which the IC50 was above 500 nM.
Then `CN(C)Cc1ccc(NC(=O)c2cccc3c2CC[C@@H]3Oc2cnc3cnn(C)c3c2)cc1` [Compound 76aa], with 50 to 200 nM; and `Cn1cc(-c2cncc(N[C@H]3CCc4c(NC(=O)NCC5CC5)cccc43)n2)cn1` [Compound 65d], with above 500 nM; and `CC(C)(C)c1ccnc(Nc2cccc3c2CC[C@@H]3Nc2cncc(Cl)c2)n1` [Compound 42h], with above 500 nM.
As for `Cn1cc(-c2cncc(N[C@H]3CCc4c(NC(=O)c5cccc(C6CC6)c5)ccc(F)c43)c2)cn1` [Compound 46c], the IC50 is below 50 nM.
In the case of `CN1CC(c2cccc(NC(=O)c3cccc4c3CC[C@@H]4Oc3cncc(-c4cnn(C)c4)c3)c2)C1` [Compound 19o], the IC50 was in the range of 50 to 200 nM.
